Data: patent US20200392158A1, “INHIBITORS OF LEUCINE RICH REPEAT KINASE 2” (GLAXOSMITHKLINE INTELLECTUAL PROPERTY DEVELOPMENT LIMITED, priority 2017, published 2020)

Target: T1, full length G2019 human LRRK2 (Homo sapiens, UniProt Q5S007, R50H)
T1 construct: made in house; host or cells: HEK293 6E cells transduced with BacMam virus (virus generated in Sf9 cells)
Assay: Full length G2019 human LRRK2 inhibition mass spectrometry assay
Format: biochemical
Settings: LRRKtide to phospho-LRRKtide conversion, RapidFire MS, 2 mM ATP
Procedure, shortened: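 Inhibition taken as reduced LRRKtide phosphorylation, quantified by RapidFire-coupled triple-quadrupole MS as product/(product+substrate) peak area. Reaction: 2 mM ATP, 25 μM peptide, ~25 nM full-length G2019 Flag-LRRK2, Hepes pH 7.2 buffer, room temperature for 1 h. 11-point 1-in-4 dilutions from 100 μM; logistic fit gives IC50, reported as pIC50.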

T1 sequence (Q5S007 with tags, fused parts or gaps R50H): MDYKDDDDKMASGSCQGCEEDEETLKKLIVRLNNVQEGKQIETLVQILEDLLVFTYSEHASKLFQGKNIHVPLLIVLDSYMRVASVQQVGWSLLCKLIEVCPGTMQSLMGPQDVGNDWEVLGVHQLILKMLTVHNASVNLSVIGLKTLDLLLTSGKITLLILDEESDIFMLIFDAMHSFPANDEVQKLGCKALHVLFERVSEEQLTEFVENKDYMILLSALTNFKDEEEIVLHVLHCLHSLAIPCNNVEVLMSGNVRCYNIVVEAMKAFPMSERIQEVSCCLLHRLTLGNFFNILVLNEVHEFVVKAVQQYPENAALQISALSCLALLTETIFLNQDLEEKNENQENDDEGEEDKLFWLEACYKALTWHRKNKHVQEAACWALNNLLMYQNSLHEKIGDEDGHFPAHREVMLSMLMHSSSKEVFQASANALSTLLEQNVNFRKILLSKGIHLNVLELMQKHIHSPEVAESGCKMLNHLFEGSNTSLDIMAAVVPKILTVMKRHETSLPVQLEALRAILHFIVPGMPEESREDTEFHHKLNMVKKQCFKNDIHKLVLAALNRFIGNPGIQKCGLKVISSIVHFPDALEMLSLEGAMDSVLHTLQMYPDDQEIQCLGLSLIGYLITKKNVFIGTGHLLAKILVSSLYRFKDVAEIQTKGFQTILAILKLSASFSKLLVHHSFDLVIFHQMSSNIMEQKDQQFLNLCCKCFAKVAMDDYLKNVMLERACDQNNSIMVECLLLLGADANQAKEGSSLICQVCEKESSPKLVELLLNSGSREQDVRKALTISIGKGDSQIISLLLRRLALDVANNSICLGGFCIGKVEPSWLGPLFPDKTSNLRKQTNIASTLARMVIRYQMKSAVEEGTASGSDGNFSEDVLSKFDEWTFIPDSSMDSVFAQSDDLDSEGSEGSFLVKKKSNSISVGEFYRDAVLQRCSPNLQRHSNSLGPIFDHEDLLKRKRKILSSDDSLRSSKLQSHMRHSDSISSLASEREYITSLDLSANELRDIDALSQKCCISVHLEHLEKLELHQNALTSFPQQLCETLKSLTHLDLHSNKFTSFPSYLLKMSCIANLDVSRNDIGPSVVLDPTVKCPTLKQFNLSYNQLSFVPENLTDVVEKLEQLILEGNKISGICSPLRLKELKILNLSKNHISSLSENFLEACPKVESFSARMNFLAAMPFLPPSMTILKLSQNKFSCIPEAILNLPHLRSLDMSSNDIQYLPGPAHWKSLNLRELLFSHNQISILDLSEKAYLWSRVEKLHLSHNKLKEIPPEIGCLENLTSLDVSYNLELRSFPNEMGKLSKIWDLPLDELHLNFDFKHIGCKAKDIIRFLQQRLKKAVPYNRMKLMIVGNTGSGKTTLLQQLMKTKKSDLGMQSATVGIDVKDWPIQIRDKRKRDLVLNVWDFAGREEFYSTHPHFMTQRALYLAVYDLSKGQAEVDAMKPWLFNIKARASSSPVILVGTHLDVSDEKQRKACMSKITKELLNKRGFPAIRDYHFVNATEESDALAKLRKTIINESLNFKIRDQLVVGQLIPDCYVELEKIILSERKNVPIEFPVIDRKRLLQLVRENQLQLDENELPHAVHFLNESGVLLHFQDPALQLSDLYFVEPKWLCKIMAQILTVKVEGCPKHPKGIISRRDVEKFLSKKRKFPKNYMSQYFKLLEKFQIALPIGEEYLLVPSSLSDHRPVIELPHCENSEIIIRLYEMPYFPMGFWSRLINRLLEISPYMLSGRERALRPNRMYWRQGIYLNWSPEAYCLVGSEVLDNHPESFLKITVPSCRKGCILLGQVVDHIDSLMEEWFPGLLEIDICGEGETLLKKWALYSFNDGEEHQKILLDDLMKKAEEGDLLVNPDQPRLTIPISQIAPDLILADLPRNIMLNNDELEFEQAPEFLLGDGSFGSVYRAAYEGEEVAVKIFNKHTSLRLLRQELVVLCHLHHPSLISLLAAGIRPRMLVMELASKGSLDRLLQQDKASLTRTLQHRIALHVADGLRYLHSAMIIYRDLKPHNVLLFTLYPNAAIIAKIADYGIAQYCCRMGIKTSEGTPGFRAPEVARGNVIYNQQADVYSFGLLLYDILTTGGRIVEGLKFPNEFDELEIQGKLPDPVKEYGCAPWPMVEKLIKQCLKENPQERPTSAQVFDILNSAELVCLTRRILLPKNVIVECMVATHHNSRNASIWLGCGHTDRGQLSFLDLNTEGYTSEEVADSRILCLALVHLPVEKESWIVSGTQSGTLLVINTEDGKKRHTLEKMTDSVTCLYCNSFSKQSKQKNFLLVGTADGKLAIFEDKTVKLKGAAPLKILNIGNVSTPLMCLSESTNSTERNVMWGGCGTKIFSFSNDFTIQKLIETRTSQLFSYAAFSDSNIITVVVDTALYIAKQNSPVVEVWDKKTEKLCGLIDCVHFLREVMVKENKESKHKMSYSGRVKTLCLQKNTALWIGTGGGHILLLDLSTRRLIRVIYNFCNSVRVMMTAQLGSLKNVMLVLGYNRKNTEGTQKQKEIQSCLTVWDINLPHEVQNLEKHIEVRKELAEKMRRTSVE

Compound | IC50
Cc1c2c(nn1CC(C)(C)O)OCCC(C)Nc1nc(ncc1Cl)N2 (single isomer, unassigned) [E264, 1-{14-Chloro-4,11-dimethyl-8-oxa-2,5,6,12,16,17-hexaazatricyclo[11.3.1.0^3,7]heptadeca-1(17),3,6,13,15-pentaen-5-yl}-2-methylpropan-2-ol] | ≤ 10 µM
COC1CNc2nc(ncc2Cl)Nc2c(nn(C3CCC(C(F)(F)F)CC3)c2C)OC1 (single isomer, unassigned) [E279, 14-Chloro-10-methoxy-4-methyl-5-[4-(trifluoromethyl)cyclohexyl]-8-oxa-2,5,6,12,16,17-hexaazatricyclo [11.3. 1.0^3,7]heptadeca-1(16),3,6,13(17),14-pentaene] | ≤ 10 µM
Cc1c2c(nn1C1CCC(C(F)(F)F)CC1)OCCC(C)Nc1nc(ncc1Cl)N2 (single isomer, unassigned) [E280, 4-Chloro-4,11-dimethyl-5-[4-(trifluoromethyl)cyclohexyl]-8-oxa-2,5,6,12,16,17-hexaazatricyclo[11.3.1.0^3,7] heptadeca-1(16),3,6,13(17),14-pentaene] | ≤ 10 µM
Cc1c2c(nn1C1CCOCC1)OCCC(C)Nc1nc(ncc1C(F)(F)F)N2 (single isomer, unassigned) [E290, 4,11-Dimethyl-5-(oxan-4-yl)-14-(trifluoromethyl) -8-oxa-2,5,6,12,16,17-hexaazatricyclo[11.3.1.0^3,7]heptadeca-1(16),3,6,13(17),14-pentaene] | ≤ 10 µM
Cc1c2c(nn1C1COCCC1(F)F)OCCCNc1nc(ncc1Cl)N2 (single isomer, unassigned) [E303, 14-Chloro-5-(4,4-difluorooxan-3-yl)-4-methyl-8-oxa-2,5,6,12,16,17-hexaazatricyclo[11.3.1.0^3,7]heptadeca-1(16),3,6,13(17),14-pentaene] | ≤ 10 µM
Cc1c2c(nn1C1COCCC1(F)F)OCC[C@@H](C)Nc1nc(ncc1Cl)N2 (single isomer, unassigned) [E304] | ≤ 0.1 µM
Cc1c2c(nn1C1CCCOC1)OCC(C)CNc1nc(ncc1Cl)N2 (single isomer, unassigned) [E309, 14-Chloro-4,10-dimethyl-5-(oxan-3-yl)-8-oxa-2,5,6,12,16,17-hexaazatricyclo[11.3.1.0^3,7]heptadeca-1(16),3,6, 13(17),14-pentaene] | ≤ 0.1 µM
Cc1c2c(nn1C1CC(N3CCC(F)(F)C3)C1)OCCC(C)Nc1nc(ncc1Cl)N2 (single isomer, unassigned) [E315, 14-Chloro-5-[3-(3,3-difluoropyrrolidin-1-yl)cyclobutyl]-4,11-dimethyl-8-oxa-2,5,6,12,16,17-hexaazatricyclo [11.3.1.0^3,7]-heptadeca-1(16),3,6,13(17),14-pentaene] | ≤ 10 µM
Cc1c2c(nn1C1CC(N3CCC(F)(F)C3)C1)OCCC(C)Nc1nc(ncc1Cl)N2 (single isomer, unassigned) [E316, 14-Chloro-5-[3-(3,3-difluoropyrrolidin-1-yl)cyclobutyl]-4,11-dimethyl-8-oxa-2,5,6,12,16,17-hexaazatricyclo [11.3.1.0^3,7]-heptadeca-1(16),3,6,13(17),14-pentaene] | ≤ 0.1 µM
CCC1CCOc2nn(C3COC3)c(C)c2Nc2ncc(Cl)c(n2)N1 (single isomer, unassigned) [E319, 14-Chloro-11-ethyl-4-methyl-5-(oxetan-3-yl)-8-oxa-2,5,6,12,16,17-hexaazatricyclo[11.3.1.0^3,7]heptadeca-1(16), 3,6,13(17),14-pentaene] | ≤ 10 µM
CCC1CCOc2nn(C3COC3)c(C)c2Nc2ncc(Cl)c(n2)N1 (single isomer, unassigned) [E320, 14-Chloro-11-ethyl-4-methyl-5-(oxetan-3-yl)-8-oxa-2,5,6,12,16,17-hexaazatricyclo[11.3.1.0^3,7]heptadeca-1(16), 3,6,13(17),14-pentaene] | ≤ 0.1 µM
COCC1CCOc2nn(C3CCOCC3F)c(C)c2Nc2ncc(Cl)c(n2)N1 (single isomer, unassigned) [E353, 14-Chloro-5-(3-fluorooxan-4-yl)-11-(methoxymethyl)-4-methyl-8-oxa-2,5,6,12,16,17-hexaazatricyclo [11.3. 1.0^3,7]heptadeca-1(16),3,6,13(17),14-pentaene] | ≤ 0.1 µM
COCC1CCOc2nn(C3CCOCC3F)c(C)c2Nc2ncc(Cl)c(n2)N1 (single isomer, unassigned) [E354, 14-Chloro-5-(3-fluorooxan-4-yl)-11-(methoxymethyl)-4-methyl-8-oxa-2,5,6,12,16,17-hexaazatricyclo [11.3. 1.0^3,7]heptadeca-1(16),3,6,13(17),14-pentaene] | ≤ 0.1 µM
COCC1CCOc2nn(C3CCOCC3F)c(C)c2Nc2ncc(Cl)c(n2)N1 (single isomer, unassigned) [E355, 14-Chloro-5-(3-fluorooxan-4-yl)-11-(methoxymethyl)-4-methyl-8-oxa-2,5,6,12,16,17-hexaazatricyclo [11.3. 1.0^3,7]heptadeca-1(16),3,6,13(17),14-pentaene] | ≤ 0.1 µM

Second part, the compound after the results:

IC50 | Compound
≤ 0.1 µM | Cc1c2c(nn1C1CCC(C)CC1)OCCCNc1nc(ncc1Cl)N2 (single isomer, unassigned) [E258, 14-Chloro-4-methyl-5-(4-methylcyclohexyl)-8-oxa-2,5,6,12,16,17-hexaazatricyclo[11.3.1.0^3,7]heptadeca-1(16),3,6,13 (17),14-pentaene]
≤ 0.1 µM | Cc1c2c(nn1C1CCC(C)CC1)OCCC(C)Nc1nc(ncc1Cl)N2 (single isomer, unassigned) [E260, 14-Chloro-4,11-dimethyl-5-(4-methylcyclohexyl)-8-oxa-2,5,6,12,16,17-hexaazatricyclo[11.3.1.0^3,7] heptadeca-1(16),3,6,13(17),14-pentaene]
≤ 10 µM | Cc1c2c(nn1C1CCC(C)CC1)OCCC(C)Nc1nc(ncc1Cl)N2 (single isomer, unassigned) [E261, 14-Chloro-4,11-dimethyl-5-(4-methylcyclohexyl)-8-oxa-2,5,6,12,16,17-hexaazatricyclo[11.3.1.0^3,7] heptadeca-1(16),3,6,13(17),14-pentaene]
≤ 10 µM | Cc1c2c(nn1C1CCC(C)CC1)OCCC(C)Nc1nc(ncc1Cl)N2 (single isomer, unassigned) [E262, 14-Chloro-4,11-dimethyl-5-(4-methylcyclohexyl)-8-oxa-2,5,6,12,16,17-hexaazatricyclo[11.3.1.0^3,7] heptadeca-1(16),3,6,13(17),14-pentaene]
≤ 10 µM | COC1CNc2nc(ncc2Cl)Nc2c(nn(C3COC3)c2C)OC1 (single isomer, unassigned) [E271, 14-Chloro-10-methoxy-4-methyl-5-(oxetan-3-yl)-8-oxa-2,5,6,12,16,17-hexaazatricyclo[11.3.1.0^3,7]heptadeca-1(16),3,6,13(17),14-pentaene]
≤ 0.1 µM | COC1CNc2nc(ncc2Cl)Nc2c(nn(CC3(C)COC3)c2C)OC1 (single isomer, unassigned) [E272, 14-Chloro-10-methoxy-4-methyl-5-[(3-methyloxetan-3-yl)methyl]-8-oxa-2,5,6,12,16,17-hexaazatricyclo [11.3.1.0^3,7]heptadeca-1(16),3,6,13(17),14-pentaene]
≤ 10 µM | COC1CNc2nc(ncc2Cl)Nc2c(nn(CC3(C)COC3)c2C)OC1 (single isomer, unassigned) [E273, 14-Chloro-10-methoxy-4-methyl-5-[(3-methyloxetan-3-yl)methyl]-8-oxa-2,5,6,12,16,17-hexaazatricyclo [11.3.1.0^3,7]heptadeca-1(16),3,6,13(17),14-pentaene]
≤ 10 µM | COC1CNc2nc(ncc2Cl)Nc2c(nn(CC3CCOCC3)c2C)OC1 (single isomer, unassigned) [E275, 14-Chloro-10-methoxy-4-methyl-5-(oxan-4-ylmethyl)-8-oxa-2,5,6,12,16,17-hexaazatricyclo[11.3.1.0^3,7] heptadeca-1(16),3,6,13(17),14-pentaene]
≤ 10 µM | CCOC1CNc2nc(ncc2Cl)Nc2c(nn(C3CCOCC3)c2C)OC1 (single isomer, unassigned) [E286, 14-Chloro-10-ethoxy-4-methyl-5-(oxan-4-yl)-8-oxa-2,5,6,12,16,17-hexaazatricyclo[11.3.1.0^3,7]heptadeca-1(16),3,6,13(17),14-pentaene]
≤ 10 µM | Cc1c2c(nn1C1CCOCC1)OCCC(C1CC1)Nc1nc(ncc1Cl)N2 (single isomer, unassigned) [E292, 14-Chloro-11-cyclopropyl-4-methyl-5-(oxan-4-yl)-8-oxa-2,5,6,12,16,17-hexaazatricyclo[11.3.1.0^3,7]heptadeca-1(16),3,6,13(17),14-pentaene]
≤ 0.1 µM | Cc1c2c(nn1C1CCCOC1)OCC(C)CNc1nc(ncc1Cl)N2 (single isomer, unassigned) [E307, 14-Chloro-4,10-dimethyl-5-(oxan-3-yl)-8-oxa-2,5,6,12,16,17-hexaazatricyclo[11.3.1.0^3,7]heptadeca-1(16),3,6, 13(17),14-pentaene]
≤ 0.1 µM | Cc1c2c(nn1C1CCCOC1)OCC(C)CNc1nc(ncc1Cl)N2 (single isomer, unassigned) [E308, 14-Chloro-4,10-dimethyl-5-(oxan-3-yl)-8-oxa-2,5,6,12,16,17-hexaazatricyclo[11.3.1.0^3,7]heptadeca-1(16),3,6, 13(17),14-pentaene]
≤ 0.1 µM | COCC1CCOc2nn(C3CCOCC3F)c(C)c2Nc2ncc(Cl)c(n2)N1 (single isomer, unassigned) [E352, 14-Chloro-5-(3-fluorooxan-4-yl)-11-(methoxymethyl)-4-methyl-8-oxa-2,5,6,12,16,17-hexaazatricyclo [11.3. 1.0^3,7]heptadeca-1(16),3,6,13(17),14-pentaene]
≤ 10 µM | COCC1CCOc2nn(C3CCOCC3F)c(C)c2Nc2ncc(Cl)c(n2)N1 (single isomer, unassigned) [E356, 14-Chloro-5-(3-fluorooxan-4-yl)-11-(methoxymethyl)-4-methyl-8-oxa-2,5,6,12,16,17-hexaazatricyclo [11.3. 1.0^3,7]heptadeca-1(16),3,6,13(17),14-pentaene]
